Reference: article PMC11431963 (International Journal of Molecular Sciences, 2024)
Values belong to the compound of their own block, whether it stands above or below them.

What was measured:
murine Abcg2 = target: T1, murine Abcg2 (Mus musculus, UniProt Q7TMS5); assay: Transepithelial transport assay in MDCK-II cells transduced with murine Abcg2; assay type: in vitro ADME
T1 sequence (Q7TMS5 1-657): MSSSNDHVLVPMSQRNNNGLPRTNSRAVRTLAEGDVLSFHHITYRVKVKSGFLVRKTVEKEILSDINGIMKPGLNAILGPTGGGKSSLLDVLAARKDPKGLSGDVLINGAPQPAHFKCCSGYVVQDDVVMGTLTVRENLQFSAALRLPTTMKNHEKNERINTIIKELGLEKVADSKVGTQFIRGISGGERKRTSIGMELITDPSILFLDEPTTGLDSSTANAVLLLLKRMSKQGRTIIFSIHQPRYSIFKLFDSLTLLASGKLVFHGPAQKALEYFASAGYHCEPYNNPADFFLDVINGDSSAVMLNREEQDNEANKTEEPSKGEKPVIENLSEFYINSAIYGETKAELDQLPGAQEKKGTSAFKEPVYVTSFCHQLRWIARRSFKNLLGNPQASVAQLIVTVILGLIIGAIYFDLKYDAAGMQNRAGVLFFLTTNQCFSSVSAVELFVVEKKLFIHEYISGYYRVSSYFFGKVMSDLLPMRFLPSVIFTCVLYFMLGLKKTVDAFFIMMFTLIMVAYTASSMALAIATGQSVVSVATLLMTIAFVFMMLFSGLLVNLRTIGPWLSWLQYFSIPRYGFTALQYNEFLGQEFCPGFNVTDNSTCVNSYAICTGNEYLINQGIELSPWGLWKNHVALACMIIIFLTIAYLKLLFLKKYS
Procedure: (§1) For in vitro assays, the polarized cell line Madin-Darby canine kidney (MDCK-II) and their murine Abcg2 and human ABCG2 transduced subclones, which were previously generated and provided by A.H. Schinkel from the Netherlands Cancer Institute (Amsterdam, The Netherlands), were used.
(§2) Transcellular transport assays were performed as previously described, with minor modifications (Figure S1). Transduced MDCK-II cells were seeded as a monolayer on microporous membrane filters (3.0 μm pore size, 24 mm diameter; Transwell® 3414; Costar, Corning, NY, USA) at a density of 1.0 x 10^6 cells/well. Cells were grown for three days with daily medium replacement.
(§3) During the experiment, quality controls were performed in terms of monolayer tightness at the beginning and end of the assay using Millicell®ERS (Millipore, Burlington, MA, USA), and monolayer confluence was tested at the end of the experiment by means of Lucifer Yellow permeability. Transport proficiency was simultaneously checked by testing a typical ABCG2 substrate (danofloxacin 10 μM) (Table S1).
(§4) (to verify that the potential transport was specifically due to ABCG2). […] This volume was replaced with fresh Opti-MEM medium. Finally, at t = 4 h 600 µL aliquots were taken from the apical and basal compartments of each well. All samples were stored at −20 °C until being analyzed by high-performance liquid chromatography (HPLC), as described below.
(§5) The relative efflux transport ratio was calculated as the basal to apical directed transport percentage divided by the apical to basal directed transport percentage at 4 h.
(§6) Tissue samples were homogenized with a mixture of 50% water:50% methanol with 0.5% HCl; 1 mL of solution per 0.1 g of organ was used. To each 100 µL of plasma, milk or tissue homogenate, 10 µL of an albendazole-2-aminosulfone solution (100 µg/mL) was added as an internal standard and 400 µL of acetonitrile was also added in order to precipitate proteins. After 10 min of being horizontally vortexed, samples were centrifuged at 10,500× g for 10 min at 4 °C. Supernatants were evaporated to dryness at 40 °C under a stream of nitrogen. Samples were reconstituted in 100 µL of cold methanol and injected into the HPLC system. However, samples for in vitro assays were directly injected into the HPLC system.
(§7) The chromatographic system used for sample analysis consisted of a Waters 2695 separation module and a Waters 2998 UV photodiode array detector. Separation of samples was performed on an analytical reversed-phase column (5 µm particle size, 250 × 4.6 mm, EVO C18 100 Å, Phenomenex®, Torrance, CA, USA). The mobile phase used for in vitro samples was trifluoroacetic acid 0.04%:methanol (40:60), whereas for in vivo samples, it was ammonium acetate 25 mM (pH 5):acetonitrile (85:15). In both cases, the flow rate was set to 1.00 mL/min and UV absorbance was measured at 260.3 nm.

ABCG2 (BCRP) [1] = target: T2, ABCG2 (BCRP) (Homo sapiens, UniProt Q9UNQ0); assay: Transepithelial transport assay in MDCK-II cells transduced with human ABCG2; assay type: in vitro ADME; details: human; danofloxacin 10 µM, positive control, 4 h, MDCK-II hABCG2; read-out: Transport ratio (BA/AB)
T2 sequence (Q9UNQ0 1-655): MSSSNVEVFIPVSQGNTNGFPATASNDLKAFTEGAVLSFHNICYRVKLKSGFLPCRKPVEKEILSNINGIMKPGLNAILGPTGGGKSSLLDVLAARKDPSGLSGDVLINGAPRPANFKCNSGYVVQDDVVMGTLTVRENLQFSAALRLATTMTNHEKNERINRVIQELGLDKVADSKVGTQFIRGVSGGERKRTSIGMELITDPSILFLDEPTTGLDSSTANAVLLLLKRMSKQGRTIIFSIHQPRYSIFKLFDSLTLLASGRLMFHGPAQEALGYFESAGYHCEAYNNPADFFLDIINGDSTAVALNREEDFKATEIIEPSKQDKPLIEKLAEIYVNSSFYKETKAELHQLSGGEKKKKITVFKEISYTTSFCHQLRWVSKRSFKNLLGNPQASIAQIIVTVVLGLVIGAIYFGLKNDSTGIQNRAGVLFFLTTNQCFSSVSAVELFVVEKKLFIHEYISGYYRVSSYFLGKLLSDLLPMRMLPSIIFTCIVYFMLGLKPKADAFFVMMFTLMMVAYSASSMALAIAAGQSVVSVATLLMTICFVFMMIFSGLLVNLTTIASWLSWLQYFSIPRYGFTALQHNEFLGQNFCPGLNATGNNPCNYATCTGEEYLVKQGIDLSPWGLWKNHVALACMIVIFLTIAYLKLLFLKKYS
Procedure: as §1, §2, §3, §4, §5, §6
as §7, with “The mobile phase used for in vitro samples was trifluoroacetic acid 0.04%:methanol (40:60), whereas for in vivo samples, it was ammonium acetate 25 mM (pH 5):acetonitrile (85:15).” left out

human ABCG2 = target: T3, human ABCG2 (Homo sapiens, UniProt Q9UNQ0); assay: as above; assay type: in vitro ADME
T3 sequence (Q9UNQ0 1-655): T2 sequence (Q9UNQ0 1-655)
Procedure: as §1, §2, §3, §4, §5, §6
as §7, with “The mobile phase used for in vitro samples was trifluoroacetic acid 0.04%:methanol (40:60), whereas for in vivo samples, it was ammonium acetate 25 mM (pH 5):acetonitrile (85:15).” left out

Abcg2 (BCRP) [2] = target: T4, Abcg2 (BCRP) (Mus musculus, UniProt Q7TMS5); assay: Transepithelial transport assay in MDCK-II cells transduced with murine Abcg2; assay type: in vitro ADME; details: mouse; danofloxacin 10 µM, positive control, 4 h, MDCK-II mABCG2; read-out: Transport ratio (BA/AB)
T4 sequence (Q7TMS5 1-657): T1 sequence (Q7TMS5 1-657)
Procedure: as §1, §2, §3, §4, §5, §6, §7

[3] = Transepithelial transport assay in parental MDCK-II cells; assay type: in vitro ADME, canine; details: dog, danofloxacin 10 µM, positive control, read-out: Transport ratio (BA/AB)
Procedure: as §1, §2, §3, §4
(§8) Lumichrome appearance in the opposite compartment is presented as the fraction of total compound added at the beginning of the experiment and expressed as percentage. The relative efflux transport ratio was calculated as the basal to apical directed transport percentage divided by the apical to basal directed transport percentage at 4 h.

parental MDCK-II cells = assay: as above; assay type: in vitro ADME, canine; details: danofloxacin 10 µM, positive control, 4 h
Procedure: as §1, §2, §3, §4, §8

MCF-7 = details: breast cancer cell line MCF-7; cited from earlier work
[4] = tested on: non-small-cell lung cancer (NSCLC) cell lines; details: p53-dependent mechanisms; cited from earlier work
[5] = Tissue distribution in wild-type and Abcg2-/- male mice; details: 10 mg/kg intraperitoneal; for concentration at 60 min: male, FVB/N, mouse, in vivo, ip, 10 mg/kg
From the text: (§9) Animals were handled according to institutional and ARRIVE guidelines complying with European legislation (2010/63/EU). Experimental procedures were approved by the Animal Care and Use Committee of the University of León and the Junta de Castilla y León (ULE_010_2021). Abcg2^-/- and wild-type mice were used, all of >99% FVB/N genetic background, generated and kindly supplied by A. H. Schinkel (The Netherlands Cancer Institute).
(§10) All animals, which were aged from 9 to 14 weeks and weighed 30 g, were kept in a temperature-controlled environment with a cycle of 12 h of light and 12 h of darkness and received a standard diet and water ad libitum.
(§11) Blood samples were collected at different time points (5, 10, 20, 30, 45, 60, 90 and 120 min) by cardiac puncture under anesthesia with isoflurane. Organs were harvested at the 60 min time point. All animals were euthanized by cervical dislocation at the end of the experimental procedure. Heparinized blood samples were centrifuged immediately at 3000× g for 15 min. Plasma and organs were stored at −20 °C until HPLC analysis. Three to ten animals were used for each time point.
as §6, §7

[6] = Plasma levels in wild-type and Abcg2-/- male mice after intraperitoneal administration; details: for concentration at 45 min / concentration at 60 min: Plasma concentration
From the text: as §9, §10, §11, §6, §7

Colo-205 = details: colorectal cancer cell line Colo-205; cited from earlier work
in vivo = details: female, FVB/N, mouse, ip, 10 mg/kg, 10 mg/kg intraperitoneal
From the text: as §9, §10
Pups of approximately 10 days old were separated from their mothers four hours before the onset of the experiment. […] Milk secretion was stimulated by oxytocin (200 μL of a 1 UI/mL solution), subcutaneously injected to lactating mice 10 min before sample collection. […] Animals were euthanized by cervical dislocation at the end of the experiment. Four to five animals were used for each group.
Heparinized blood samples were centrifuged immediately at 3000× g for 15 min to obtain plasma. Milk and plasma were also stored at −20 °C until HPLC analysis.
as §6, §7

HepG2 = details: liver cancer cell line HepG2; cited from earlier work
[7] = danofloxacin 10 µM, positive control, 4 h, MDCK-II hABCG2
[8] = danofloxacin 10 µM, positive control, 4 h, MDCK-II mABCG2
[9] = male, FVB/N, mouse, in vivo, ip, 10 mg/kg, Abcg2-/- male mice, 10 mg/kg intraperitoneal
[10] = male, FVB/N, mouse, in vivo, ip, 10 mg/kg, wild-type male mice, 10 mg/kg intraperitoneal

Structure (SMILES): COc1ccc2c3c([nH]c2c1)[C@H](CC(C)C)N1C(=O)[C@H](CCC(=O)OC(C)(C)C)NC(=O)[C@@H]1C3 [Ko143]
Inhibition of ABCG2-mediated transport of lumichrome (murine Abcg2; Ko143 1 µM, lumichrome 10 µM, murine Abcg2 subclone): completely inhibited

efflux ratio at 4 h, 10 µM (ABCG2 (BCRP) [1]): 2.04 ± 0.57 | AB transport (%) (human ABCG2; [7]): 17.22 ± 2.98% | BA transport (%) (human ABCG2; [7]): 33.94 ± 4.07% | AB transport (%) (murine Abcg2; [8]): 5.30 ± 1.97% | BA transport (%) (murine Abcg2; [8]): 45.77 ± 6.49% | efflux ratio at 4 h, 10 µM (Abcg2 (BCRP) [2]): 9.24 ± 2.59 | efflux ratio at 4 h, 10 µM [3]: 0.96 ± 0.08 | AB transport (%) (parental MDCK-II cells): 22.84 ± 2.99% | BA transport (%) (parental MDCK-II cells): 21.82 ± 1.79%
Structure (SMILES): CN1C[C@@H]2C[C@H]1CN2c1cc2c(cc1F)c(=O)c(C(=O)O)cn2C1CC1 [danofloxacin]

In vitro transport by the transporter (substrate) (human ABCG2; lumichrome 10 µM, human variant): efficiently transported | In vitro transport by the transporter (substrate) (murine Abcg2; lumichrome 10 µM, murine variant): efficiently transported | concentration at 60 min ([5]; Concentration in liver, Abcg2-/- male mice): 340 ± 120 ng/mL | concentration at 60 min ([5]; Concentration in liver, wild-type male mice): 150 ± 70 ng/mL | concentration at 60 min ([5]; Concentration in small intestine content, Abcg2-/- male mice): 310 ± 110 ng/mL | concentration at 60 min ([5]; Concentration in small intestine content, wild-type male mice): 850 ± 350 ng/mL | concentration at 60 min ([5]; Concentration in testis, Abcg2-/- male mice): 180 ± 50 ng/mL | concentration at 60 min ([5]; Concentration in testis, wild-type male mice): 80 ± 60 ng/mL | Plasma AUC 20–120 min ([6]; Abcg2-/- male mice, 10 mg/kg intraperitoneal): 1290 ± 110 ng·h/mL | AUC ([6]; male, FVB/N, mouse, in vivo, ip, 10 mg/kg): 720 ± 50 ng·h/mL | concentration at 45 min [6, 9]: 1020 ± 260 ng/mL | concentration at 60 min [6, 9]: 850 ± 500 ng/mL | concentration at 45 min [6, 10]: 390 ± 240 ng/mL | concentration at 60 min [6, 10]: 400 ± 130 ng/mL | concentration at 30 min (in vivo; Milk concentration, Abcg2-/- lactating female mice): 430 ± 180 ng/mL | concentration at 30 min (in vivo; Milk concentration, wild-type lactating female mice): 1750 ± 730 ng/mL | concentration at 30 min (in vivo; Plasma concentration, Abcg2-/- lactating female mice): 280 ± 100 ng/mL | concentration at 30 min (in vivo; Plasma concentration, wild-type lactating female mice): 310 ± 60 ng/mL
Structure (SMILES): Cc1cc2nc3[nH]c(=O)[nH]c(=O)c3nc2cc1C [lumichrome]
Concentration showing significant cytotoxic activity (MCF-7): higher than 40 µM | Concentration suppressing growth and inducing apoptosis [4]: above 25 µM | Tissue distribution (liver, kidney, small intestine, small intestine content, spleen, brain, testis) ([5]; male mice, 60 min): widely distributed in all organs analyzed | Concentration showing significant cytotoxic activity (Colo-205): higher than 40 µM | Concentration showing significant cytotoxic activity (HepG2): higher than 40 µM
